Data as given in publication PMC4358806 (European Journal of Medicinal Chemistry, 2013).
pEC50, pIC50: −log10 of the molar value. Read-outs that look alike come from different tables or passages of the source.

Legend:
tumor cell lines = assay: Cytostatic activity, ranges over several tumor cell lines; assay type: cell-based
HCV replicon (type 1b) [1] = conditions: read-out: EC50 HCV replicon, Huh 7 cells; cited from earlier work
Huh 7 cells = conditions: cited from earlier work
[2] = tested on: HEL and CrFK cell cultures; assay: Cytotoxicity; assay type: cell-based
Feline herpes virus = assay: organism not typed; assay type: cell-based; conditions: read-out: EC50 Feline herpes virus
[3] = tested on: human and feline herpes viruses; assay: organism not typed; assay type: cell-based; conditions: read-out: EC50 against human and feline herpes viruses
HCV replicon (type 1b) [4] = assay: HCV replicon assay; assay type: cell-based; conditions: L-alanine vs D-alanine derivative
HIV-1(IIIB) = assay type: cell-based
HIV-2(ROD) = assay type: cell-based
HIV-1 and HIV-2 = assay type: cell-based
[5] = Cytotoxicity in HCV replicon assay, Huh 7 cells; assay type: cell-based; conditions: human, Huh 7 cells (HCV replicon type 1b)
HIV-1 (X4LAI.04) = assay: microbe, parasite or virus in culture; assay type: cell-based
carboxypeptidase Y = target: T1, carboxypeptidase Y (Saccharomyces cerevisiae, UniProt P00729); assay: Carboxypeptidase Y-mediated cleavage monitored by 31P NMR; assay type: in vitro ADME; conditions: d6-acetone and Trizma buffer pH 7.6, room temperature
T1 sequence (P00729 112-532): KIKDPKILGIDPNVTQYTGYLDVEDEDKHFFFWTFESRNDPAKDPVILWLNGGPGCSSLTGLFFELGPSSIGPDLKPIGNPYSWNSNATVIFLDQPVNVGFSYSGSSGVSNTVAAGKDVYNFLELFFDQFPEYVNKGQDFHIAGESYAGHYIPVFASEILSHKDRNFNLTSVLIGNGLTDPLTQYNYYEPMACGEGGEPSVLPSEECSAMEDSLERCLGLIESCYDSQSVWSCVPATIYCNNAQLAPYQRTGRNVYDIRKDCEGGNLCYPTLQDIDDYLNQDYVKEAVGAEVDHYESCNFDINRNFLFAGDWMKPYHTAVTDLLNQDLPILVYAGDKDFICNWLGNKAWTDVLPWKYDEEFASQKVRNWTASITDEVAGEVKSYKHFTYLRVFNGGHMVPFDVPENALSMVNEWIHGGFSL

[6] = tested on: L1210 (mouse lymphocytic leukemia cells); assay type: cell-based; conditions: read-out: IC50 (50% inhibitory concentration), proliferation
[7] = tested on: CEM (human T-lymphocyte cells); assay type: cell-based; conditions: read-out: IC50 (50% inhibitory concentration), proliferation
[8] = tested on: HeLa (human cervical carcinoma cells); assay type: cell-based; conditions: read-out: IC50 (50% inhibitory concentration), proliferation
HeLa/TK− cells = assay type: cell-based, human; conditions: read-out: IC50 (50% inhibitory concentration), proliferation
[9] = tested on: Herpes simplex virus 1(KOS); assay type: cell-based, herpes simplex virus type 1; conditions: read-out: EC50 Herpes simplex virus 1(KOS)
[10] = tested on: Herpes simplex virus 2 (G); assay type: cell-based, herpes simplex virus type 2; conditions: read-out: EC50 Herpes simplex virus 2 (G)
[11] = tested on: Herpes simplex virus 1TK−(KOS)ACVr; assay type: cell-based, herpes simplex virus type 1; conditions: read-out: EC50 Herpes simplex virus 1TK−(KOS)ACVr
[12] = read-out: IC50, range over all tested tumor cell lines
[13] = read-out: IC50, range over cell lines

Molecule: Nc1ccn([C@@H]2CS[C@H](CO)O2)c(=O)n1 [Compound 5, lamivudine, reference compound]
- pIC50 (tumor cell lines; [12]): < 3.60

Molecule: [N-]=[N+]=N[C@]1(CO)O[C@@H](n2ccc(=O)[nH]c2=O)[C@H](O)[C@@H]1O [Compound 7, 4′-azidouridine]
- pEC50 (HCV replicon (type 1b) [1]): < 4.00
- CC50 (Huh 7 cells): > 100 µM

Molecule: [N-]=[N+]=N[C@]1(CO)O[C@@H](n2ccc(N)nc2=O)[C@H](O)[C@@H]1O [Compound 8, 4′-azidocytidine]
- pEC50 (HCV replicon (type 1b) [1]): 5.15
- CC50 (Huh 7 cells): > 100 µM

Molecule: NC(=O)c1ncn([C@@H]2O[C@H](CO)[C@@H](O)[C@H]2O)n1 [Compound 9, ribavirin]
- pEC50 (HCV replicon (type 1b) [1]): 4.06
- CC50 (Huh 7 cells): > 100 µM

Molecule: Nc1nc2c(ncn2COCCO)c(=O)[nH]1 [Compound 10, acyclovir, reference compound]
- MCC (cytotoxicity) [2]: >100 µM
- pEC50 (Feline herpes virus): < 4.00
- pEC50 (HCV replicon (type 1b) [1]): 4.52
- CC50 (Huh 7 cells): > 30 µM

Molecule: NC(=O)c1ncn([C@@H]2O[C@H](CO)[C@@H](O)[C@H]2O)c1N [Compound 13, acadesine, reference compound]
- MCC (cytotoxicity) [2]: >100 µM
- pEC50 (Feline herpes virus): < 4.00
- pEC50 [3]: < 4.00

Molecule: CCOc1nc(N)nc2c1ncn2[C@@H]1O[C@H](COP(=O)(N[C@@H](C)C(=O)OCC(C)(C)C)N[C@@H](C)C(=O)OCC(C)(C)C)[C@@H](O)[C@@]1(C)F [Compound 14, (2R,3R,4R,5R)-5-(2-amino-6-ethoxy-9H-purin-9-yl)-4-fluoro-2-(hydroxymethyl)-4-methyltetrahydrofuran-3-ol-5′-O-bis-(2,2-dimethylpropoxy-L-alaninyl)-phosphate]
- improved anti-HCV activity compared to 15 (HCV replicon (type 1b) [4]): 4 fold

Molecule: C[C@H](NP(=O)(N[C@@H](C)C(=O)OCC(C)(C)C)OC[C@@H]1CC[C@H](n2cnc3c(N)ncnc32)O1)C(=O)OCC(C)(C)C [Compound 19, ddA-5′-O-bis-(2,2-dimethylpropoxy-L-alaninyl)-phosphate]
- boost of activity compared to parent nucleoside, HIV-1 (HIV-1(IIIB)): 72 fold
- boost of activity compared to parent nucleoside, HIV-2 (HIV-2(ROD)): 57 fold
- pIC50 (tumor cell lines; [13]): 4.12 to 4.46

Molecule: Cc1cn([C@H]2C[C@H](N=[N+]=[N-])[C@@H](COP(=O)(N[C@@H](C)C(=O)OCc3ccccc3)N[C@@H](C)C(=O)OCc3ccccc3)O2)c(=O)[nH]c1=O [Compound 20, 3′-azido-3′-deoxythymidine-5′-O-bis(benzoxy-L-alaninyl)-phosphate]
- anti-HIV activity compared to the parent (HIV-1 and HIV-2): equipotent to the parent

Molecule: C[C@H](NP(=O)(N[C@@H](C)C(=O)OCc1ccccc1)OC[C@H]1O[C@@H](n2ccc(N)nc2=O)CS1)C(=O)OCc1ccccc1 [Compound 25, 3TC-5′-O-bis(benzoxy-L-alaninyl)-phosphate]
- pIC50 (tumor cell lines; [12]): 3.94 to 4.42

Molecule: C[C@H](NP(=O)(N[C@@H](C)C(=O)OCc1ccccc1)OC[C@H]1O[C@@H](n2cnc(C(N)=O)n2)[C@H](O)[C@@H]1O)C(=O)OCc1ccccc1 [Compound 30, ribavirin-5′-O-bis(benzoxy-L-alaninyl)-phoshate]
- CC50 [5]: > 100 µM

Molecule: C[C@H](NP(=O)(N[C@@H](C)C(=O)OCc1ccccc1)OCCOCn1cnc2c(=O)[nH]c(N)nc21)C(=O)OCc1ccccc1 [Compound 32, acyclovir-5′-O-bis[(benzoxy-L-alaninyl)]-phosphate]
- boost in activity compared to ACV, HIV-1 (HIV-1 (X4LAI.04)): > 60 fold
- pEC50 (HIV-1 (X4LAI.04); Human immunodeficiency virus 1, MT4, 72 h, read-out: EC50 HIV-1): 5.40 to 5.70
- MCC (cytotoxicity) [2]: >100 µM
- pEC50 (Feline herpes virus): < 4.00
- time to full conversion into metabolite (carboxypeptidase Y): 7.5 h

Molecule: C[C@H](NP(=O)(N[C@@H](C)C(=O)OCC(C)(C)C)OCCOCn1cnc2c(=O)[nH]c(N)nc21)C(=O)OCC(C)(C)C [Compound 33, acyclovir-5′-O-bis[(2,2-dimethylpropoxy-L-alaninyl)]-phosphate]
- boost in activity compared to ACV, HIV-1 (HIV-1 (X4LAI.04)): > 60 fold
- MCC (cytotoxicity) [2]: >100 µM
- pEC50 (Feline herpes virus): < 4.00

Molecule: C[C@H](NP(=O)(N[C@@H](C)C(=O)OCc1ccccc1)OC[C@@H]1C=C[C@H](n2cnc3c(NC4CC4)nc(N)nc32)C1)C(=O)OCc1ccccc1 [Compound 34, abacavir-5′-O-bis(benzoxy-L-alaninyl)-phosphate]
- pIC50 (tumor cell lines; [13]): 4.27 to 4.72

Molecule: C[C@H](NP(=O)(N[C@@H](C)C(=O)OCC(C)(C)C)OC[C@@H]1C=C[C@H](n2cnc3c(NC4CC4)nc(N)nc32)C1)C(=O)OCC(C)(C)C [Compound 35, abacavir-5′-O-bis-(2,2-dimethylpropoxy-L-alaninyl)-phosphate]
- pIC50 (tumor cell lines; [13]): 4.27 to 4.72

Molecule: CCCCCc1ccc(-c2cc3cn([C@H]4C[C@H](O)[C@@H](COP(=O)(N[C@@H](C)C(=O)OCc5ccccc5)N[C@@H](C)C(=O)OCc5ccccc5)O4)c(=O)nc3o2)cc1 [Compound 36, 3-(2′-deoxy-β-D-ribofuranosyl)-6-(4-n-pentylphenyl)-2,3-dihydrofuro-[2,3-d]pyrimidin-2-one-5′-O-bis-(benzoxy-L-alaninyl)-phosphate]
- pEC50 (Feline herpes virus): < 4.00
- pEC50 [3]: < 4.00

Molecule: C[C@H](NP(=O)(N[C@@H](C)C(=O)OCc1ccccc1)OC[C@H]1O[C@@H](n2cnc(C(N)=O)c2N)[C@H](O)[C@@H]1O)C(=O)OCc1ccccc1 [Compound 38, acadesine-5′-O-bis(benzoxy-L-alaninyl)-phosphate]
- MCC (cytotoxicity) [2]: >100 µM
- pEC50 (Feline herpes virus): < 4.00

Molecule: COC(=O)[C@H](C)NP(=O)(N[C@@H](C)C(=O)OC)OC[C@H]1O[C@@H](n2cnc(C(N)=O)c2N)[C@H](O)[C@@H]1O [Compound 39, acadesine-5′-O-bis(methoxy-L-alaninyl)-phosphate]
- MCC (cytotoxicity) [2]: >100 µM
- pEC50 (Feline herpes virus): < 4.00

Molecule: acadesine-5′-O-bis(2,2-dimethylpentoxy-L-alaninyl)-phosphate [Compound 40]
- pIC50 [6]: < 3.60
- pIC50 [7]: < 3.60
- pIC50 [8]: < 3.60
- pIC50 (HeLa/TK− cells): < 3.60
- MCC (cytotoxicity) [2]: >100 µM
- pEC50 [9]: < 4.00
- pEC50 [10]: < 4.00
- pEC50 [11]: < 4.00
- pEC50 (Feline herpes virus): < 4.00
